Experimental data from ChEMBL document CHEMBL3991601, “The target landscape of clinical kinase drugs” (Science, 2017).
Active and inactive are the calls of the source.

What was measured:
[1] = target: T1, Serine/threonine-protein kinase LATS1 (Homo sapiens, UniProt O95835)
T1 sequence (O95835 whole entry): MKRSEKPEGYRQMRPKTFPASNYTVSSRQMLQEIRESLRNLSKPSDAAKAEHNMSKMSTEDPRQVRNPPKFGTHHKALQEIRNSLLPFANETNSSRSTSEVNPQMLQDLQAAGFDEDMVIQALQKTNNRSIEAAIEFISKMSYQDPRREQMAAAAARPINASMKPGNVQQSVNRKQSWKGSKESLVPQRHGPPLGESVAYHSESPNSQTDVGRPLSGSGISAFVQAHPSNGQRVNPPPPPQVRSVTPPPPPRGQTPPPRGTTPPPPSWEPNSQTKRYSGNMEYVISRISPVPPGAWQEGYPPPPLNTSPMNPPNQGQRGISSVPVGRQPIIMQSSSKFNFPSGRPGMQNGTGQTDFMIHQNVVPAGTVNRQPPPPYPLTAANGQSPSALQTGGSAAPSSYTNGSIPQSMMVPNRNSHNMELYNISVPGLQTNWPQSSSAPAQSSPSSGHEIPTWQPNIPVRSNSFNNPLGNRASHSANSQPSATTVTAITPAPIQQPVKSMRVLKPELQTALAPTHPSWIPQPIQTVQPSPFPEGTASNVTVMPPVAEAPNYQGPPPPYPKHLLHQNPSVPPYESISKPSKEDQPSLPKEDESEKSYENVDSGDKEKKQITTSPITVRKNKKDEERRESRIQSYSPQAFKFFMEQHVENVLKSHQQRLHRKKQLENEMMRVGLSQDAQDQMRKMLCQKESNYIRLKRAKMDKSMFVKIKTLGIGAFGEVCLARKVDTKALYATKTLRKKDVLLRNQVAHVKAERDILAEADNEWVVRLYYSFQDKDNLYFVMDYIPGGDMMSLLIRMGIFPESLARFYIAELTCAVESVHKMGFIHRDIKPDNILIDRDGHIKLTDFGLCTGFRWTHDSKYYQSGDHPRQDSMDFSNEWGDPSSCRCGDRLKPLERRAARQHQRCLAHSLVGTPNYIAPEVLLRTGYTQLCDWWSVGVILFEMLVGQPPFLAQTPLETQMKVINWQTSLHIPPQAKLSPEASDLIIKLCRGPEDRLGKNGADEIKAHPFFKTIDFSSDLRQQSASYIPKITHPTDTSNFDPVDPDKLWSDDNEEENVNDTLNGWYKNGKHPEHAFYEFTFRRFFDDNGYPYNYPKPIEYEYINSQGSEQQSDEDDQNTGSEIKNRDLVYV

[2] = target: T2, Exosome RNA helicase MTR4 (Homo sapiens, UniProt P42285)
T2 sequence (P42285 whole entry): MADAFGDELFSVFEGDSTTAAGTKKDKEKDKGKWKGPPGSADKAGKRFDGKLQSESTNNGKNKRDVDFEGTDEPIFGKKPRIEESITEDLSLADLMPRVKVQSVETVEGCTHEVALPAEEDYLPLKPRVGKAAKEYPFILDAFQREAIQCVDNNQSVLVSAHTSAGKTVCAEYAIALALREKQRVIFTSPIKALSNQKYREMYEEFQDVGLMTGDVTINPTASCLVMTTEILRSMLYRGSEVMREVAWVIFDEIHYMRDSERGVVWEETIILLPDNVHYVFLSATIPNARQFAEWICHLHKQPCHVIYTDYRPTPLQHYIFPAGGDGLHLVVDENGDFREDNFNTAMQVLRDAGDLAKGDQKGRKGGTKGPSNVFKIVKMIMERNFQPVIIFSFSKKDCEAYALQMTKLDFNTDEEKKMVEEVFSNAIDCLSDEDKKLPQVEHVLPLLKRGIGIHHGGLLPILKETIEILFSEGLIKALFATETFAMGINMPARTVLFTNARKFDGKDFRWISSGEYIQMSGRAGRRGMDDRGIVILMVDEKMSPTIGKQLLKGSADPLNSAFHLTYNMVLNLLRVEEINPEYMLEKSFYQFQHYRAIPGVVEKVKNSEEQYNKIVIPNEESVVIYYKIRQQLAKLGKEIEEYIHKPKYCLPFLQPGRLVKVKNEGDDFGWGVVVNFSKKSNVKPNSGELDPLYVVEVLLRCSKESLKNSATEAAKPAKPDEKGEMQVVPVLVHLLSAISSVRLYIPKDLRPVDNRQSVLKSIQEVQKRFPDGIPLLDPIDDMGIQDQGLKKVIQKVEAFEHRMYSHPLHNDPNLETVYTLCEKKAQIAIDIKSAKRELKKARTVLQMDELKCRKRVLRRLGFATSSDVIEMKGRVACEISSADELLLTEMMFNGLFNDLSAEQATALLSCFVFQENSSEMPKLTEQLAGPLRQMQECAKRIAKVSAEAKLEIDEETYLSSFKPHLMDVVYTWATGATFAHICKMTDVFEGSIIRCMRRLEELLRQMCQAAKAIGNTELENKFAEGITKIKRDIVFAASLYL

[3] = target: Actin-related protein 2 (Homo sapiens, UniProt P61160)
[4] = target: Serine/threonine-protein kinase/endoribonuclease IRE2 (Homo sapiens, UniProt Q76MJ5)
[5] = target: T3, Beta-adrenergic receptor kinase 1 (Homo sapiens, UniProt P25098)
T3 sequence (P25098 whole entry): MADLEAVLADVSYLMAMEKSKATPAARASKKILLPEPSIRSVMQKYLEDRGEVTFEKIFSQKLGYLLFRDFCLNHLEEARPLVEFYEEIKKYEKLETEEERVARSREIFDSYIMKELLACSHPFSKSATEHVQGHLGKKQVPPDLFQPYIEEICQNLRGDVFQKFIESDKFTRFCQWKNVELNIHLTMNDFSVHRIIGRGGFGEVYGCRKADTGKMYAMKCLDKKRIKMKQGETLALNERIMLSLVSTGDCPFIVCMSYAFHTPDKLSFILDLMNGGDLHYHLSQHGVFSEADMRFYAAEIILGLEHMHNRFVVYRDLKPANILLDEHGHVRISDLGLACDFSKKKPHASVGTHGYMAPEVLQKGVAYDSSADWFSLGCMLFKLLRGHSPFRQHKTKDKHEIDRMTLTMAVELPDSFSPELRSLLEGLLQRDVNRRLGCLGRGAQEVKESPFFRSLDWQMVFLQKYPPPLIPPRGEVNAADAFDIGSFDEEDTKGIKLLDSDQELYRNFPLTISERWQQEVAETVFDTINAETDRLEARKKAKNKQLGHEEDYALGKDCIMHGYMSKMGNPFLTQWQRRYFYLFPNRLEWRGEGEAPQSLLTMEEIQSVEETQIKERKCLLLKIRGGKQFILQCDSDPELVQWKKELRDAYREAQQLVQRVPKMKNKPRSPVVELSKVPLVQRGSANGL
Note: in the data inactive means no Kd found up to 30 µM.

Chain of Serine/threonine-protein kinase/endoribonuclease IRE2 (Q76MJ5 whole entry): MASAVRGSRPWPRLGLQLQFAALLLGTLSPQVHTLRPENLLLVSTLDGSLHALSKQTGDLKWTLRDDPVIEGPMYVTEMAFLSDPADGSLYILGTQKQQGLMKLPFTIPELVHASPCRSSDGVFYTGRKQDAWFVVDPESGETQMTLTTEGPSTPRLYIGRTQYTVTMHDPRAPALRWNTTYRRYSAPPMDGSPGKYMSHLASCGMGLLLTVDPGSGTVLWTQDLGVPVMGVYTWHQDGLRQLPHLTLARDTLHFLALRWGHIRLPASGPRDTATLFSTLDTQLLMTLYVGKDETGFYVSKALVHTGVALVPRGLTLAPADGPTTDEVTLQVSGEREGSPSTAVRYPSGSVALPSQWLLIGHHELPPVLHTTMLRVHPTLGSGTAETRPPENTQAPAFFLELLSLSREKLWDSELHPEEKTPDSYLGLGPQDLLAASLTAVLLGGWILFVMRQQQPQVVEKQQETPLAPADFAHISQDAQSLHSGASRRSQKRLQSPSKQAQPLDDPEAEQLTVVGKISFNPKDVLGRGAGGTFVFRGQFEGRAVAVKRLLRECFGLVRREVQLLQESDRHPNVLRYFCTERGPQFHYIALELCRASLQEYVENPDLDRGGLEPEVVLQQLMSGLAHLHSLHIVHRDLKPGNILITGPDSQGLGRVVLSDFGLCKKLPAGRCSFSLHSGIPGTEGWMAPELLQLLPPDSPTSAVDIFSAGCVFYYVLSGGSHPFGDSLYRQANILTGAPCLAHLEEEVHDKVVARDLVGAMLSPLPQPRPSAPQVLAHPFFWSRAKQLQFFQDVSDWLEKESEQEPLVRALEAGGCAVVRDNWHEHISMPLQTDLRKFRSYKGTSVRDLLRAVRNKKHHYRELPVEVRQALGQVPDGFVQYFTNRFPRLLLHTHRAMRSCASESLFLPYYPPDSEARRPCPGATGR

## CNC(=O)c1cccc(-c2ccc3c(N4CCOC[C@@H]4C)nc(N4CCOC[C@@H]4C)nc3n2)c1 [VISTUSERTIB]
[1]
  Kd: > 30 µM (inactive)
[2]
  Kd: > 30 µM (inactive)
[3]
  Kd: > 30 µM (inactive)
[4]
  Kd: > 30 µM (inactive)
[5]
  Kd: > 30 µM (inactive)

## C=CCn1c(=O)c2cnc(Nc3ccc(N4CCN(C)CC4)cc3)nc2n1-c1cccc(C(C)(C)O)n1 [ADAVOSERTIB]
[1]
  Kd: > 30 µM (inactive)
[2]
  Kd: > 30 µM (inactive)
[3]
  Kd: > 30 µM (inactive)
[4]
  Kd: > 30 µM (inactive)
[5]
  Kd: > 30 µM (inactive)

## CNC(=O)c1cc(COc2nnc(Nc3ccc(Cl)cc3)c3ccoc23)ccn1 [TELATINIB]
[1]
  Kd: > 30 µM (inactive)
[2]
  Kd: > 30 µM (inactive)
[3]
  Kd: > 30 µM (inactive)
[4]
  Kd: > 30 µM (inactive)
[5]
  Kd: > 30 µM (inactive)

## Cn1c(=O)c(F)c(Nc2ccc(I)cc2F)c2c(=O)n(C[C@@H](O)CO)cnc21 [TAK-733]
[1]
  Kd: > 30 µM (inactive)
[2]
  Kd: > 30 µM (inactive)
[3]
  Kd: > 30 µM (inactive)
[4]
  Kd: > 30 µM (inactive)
[5]
  Kd: > 30 µM (inactive)

## Cc1cc(-c2cc(OC(=O)c3ccccc3)ccc2Cl)cc2nnc(Nc3ccc(OCCN4CCCC4)cc3)nc12 [TG100-801]
[1]
  Kd: > 30 µM (inactive)
[2]
  Kd: > 30 µM (inactive)
[3]
  Kd: > 30 µM (inactive)
[4]
  Kd: > 30 µM (inactive)
[5]
  Kd: > 30 µM (inactive)

## CC(C)(O)CC(=O)NCCn1ccc2ncnc(Nc3ccc(Oc4cccc(C(F)(F)F)c4)c(Cl)c3)c21 [TAK-285]
[1]
  Kd: > 30 µM (inactive)
[2]
  Kd: > 30 µM (inactive)
[3]
  Kd: > 30 µM (inactive)
[4]
  Kd: > 30 µM (inactive)
[5]
  Kd: > 30 µM (inactive)

## Cc1cc(C(=O)Nc2cc(Oc3ccc4nc(NC(=O)C5CC5)cn4n3)ccc2C)n(C)n1 [TAK-593]
[1]
  Kd: > 30 µM (inactive)
[2]
  Kd: > 30 µM (inactive)
[3]
  Kd: > 30 µM (inactive)
[4]
  Kd: > 30 µM (inactive)
[5]
  Kd: > 30 µM (inactive)

## Cc1c(NC(=O)OC[C@@H]2COCCN2)cn2ncnc(Nc3ccc4c(cnn4Cc4cccc(F)c4)c3)c12 [AC-480]
[1]
  Kd: > 30 µM (inactive)
[2]
  Kd: > 30 µM (inactive)
[3]
  Kd: > 30 µM (inactive)
[4]
  Kd: > 30 µM (inactive)
[5]
  Kd: > 30 µM (inactive)

## COc1cc(Nc2ncc(F)c(Nc3ccc4c(n3)N(COP(=O)(O)O)C(=O)C(C)(C)O4)n2)cc(OC)c1OC [FOSTAMATINIB]
[1]
  Kd: 2.16 µM (active)
[2]
  Kd: > 30 µM (inactive)
[3]
  Kd: > 30 µM (inactive)
[4]
  Kd: > 30 µM (inactive)
[5]
  Kd: > 30 µM (inactive)

## C[C@@H]1COC(Nc2ccc3ncnc(Nc4ccc(OCc5nccs5)c(Cl)c4)c3c2)=N1 [VARLITINIB]
[1]
  Kd: > 30 µM (inactive)
[2]
  Kd: > 30 µM (inactive)
[3]
  Kd: > 30 µM (inactive)
[4]
  Kd: > 30 µM (inactive)
[5]
  Kd: > 30 µM (inactive)

## COCCN1CCN(Cc2ccc(-c3n[nH]c4c3C(=O)c3c(NC(=O)NN5CCOCC5)cccc3-4)cc2)CC1 [RGB-286638]
[1]
  Kd: > 30 µM (inactive)
[2]
  Kd: > 30 µM (inactive)
[3]
  Kd: > 30 µM (inactive)
[4]
  Kd: > 30 µM (inactive)
[5]
  Kd: > 30 µM (inactive)

## C=CC(=O)Nc1cccc(Nc2nc(Nc3ccc(N4CCN(C(C)=O)CC4)cc3OC)ncc2C(F)(F)F)c1 [ROCILETINIB]
[1]
  Kd: > 30 µM (inactive)
[2]
  Kd: > 30 µM (inactive)
[3]
  Kd: > 30 µM (inactive)
[4]
  Kd: > 30 µM (inactive)
[5]
  Kd: > 30 µM (inactive)

## Cc1ccc(C(=O)Nc2ccc(Oc3cc4cnn(C)c4cc3-c3cn[nH]c3)c(F)c2)c(=O)n1-c1ccc(F)cc1 [MERESTINIB]
[1]
  Kd: > 30 µM (inactive)
[2]
  Kd: > 30 µM (inactive)
[3]
  Kd: > 30 µM (inactive)
[4]
  Kd: > 30 µM (inactive)
[5]
  Kd: > 30 µM (inactive)

## O=C(O)c1ccc2c(c1)nc(Nc1cccc(Cl)c1)c1ccncc12 [SILMITASERTIB]
[1]
  Kd: > 30 µM (inactive)
[2]
  Kd: > 30 µM (inactive)
[3]
  Kd: > 30 µM (inactive)
[4]
  Kd: > 30 µM (inactive)
[5]
  Kd: > 30 µM (inactive)

## Cc1c(Cn2c(C)nc3c(C(=O)O)cc(N4CCOCC4)cc32)cccc1C(F)(F)F [GSK-2636771]
[1]
  Kd: > 30 µM (inactive)
[2]
  Kd: > 30 µM (inactive)
[3]
  Kd: > 30 µM (inactive)
[4]
  Kd: > 30 µM (inactive)
[5]
  Kd: > 30 µM (inactive)

## Cn1cc(-c2[nH]c3cc(NC(=O)[C@H](N)C4CCCCC4)cc4c3c2C=NNC4=O)cn1
[1]
  Kd: 0.363 µM (active)
[2]
  Kd: > 30 µM (inactive)
[3]
  Kd: > 30 µM (inactive)
[4]
  Kd: > 30 µM (inactive)
[5]
  Kd: 3.56 µM (active)

## NC(=O)c1ccc(N(C(N)=O)c2c(F)cccc2F)nc1-c1ccc(F)cc1F [VX-702]
[1]
  Kd: > 30 µM (inactive)
[2]
  Kd: > 30 µM (inactive)
[3]
  Kd: > 30 µM (inactive)
[4]
  Kd: > 30 µM (inactive)
[5]
  Kd: > 30 µM (inactive)

## COc1cc2ncnc(Nc3ccc(F)c(Cl)c3)c2cc1NC(=O)/C=C/CN1CCCCC1 [DACOMITINIB ANHYDROUS]
[1]
  Kd: > 30 µM (inactive)
[2]
  Kd: > 30 µM (inactive)
[3]
  Kd: > 30 µM (inactive)
[4]
  Kd: > 30 µM (inactive)
[5]
  Kd: > 30 µM (inactive)

## S=C(NCc1ccc2c(c1)OCO2)N1CCN(c2ncnc3c2oc2ccccc23)CC1 [AMUVATINIB]
[1]
  Kd: > 30 µM (inactive)
[2]
  Kd: > 30 µM (inactive)
[3]
  Kd: > 30 µM (inactive)
[4]
  Kd: > 30 µM (inactive)
[5]
  Kd: > 30 µM (inactive)

## O[C@H]1CC[C@H](Nc2ncc3nc(Nc4c(F)cc(F)cc4F)n([C@H]4CCOC4)c3n2)CC1 [TANZISERTIB]
[1]
  Kd: > 30 µM (inactive)
[2]
  Kd: > 30 µM (inactive)
[3]
  Kd: > 30 µM (inactive)
[4]
  Kd: > 30 µM (inactive)
[5]
  Kd: > 30 µM (inactive)

## CCc1nc(C(N)=O)c(Nc2ccc(N3CCC(N4CCN(C)CC4)CC3)c(OC)c2)nc1NC1CCOCC1 [GILTERITINIB]
[1]
  Kd: 0.221 µM (active)
[2]
  Kd: > 30 µM (inactive)
[3]
  Kd: > 30 µM (inactive)
[4]
  Kd: > 30 µM (inactive)
[5]
  Kd: > 30 µM (inactive)
